Eight molecules from paper PMC2248282 (Chemmedchem, 2007) can be followed below.

The subject of data set [1] is human embryonic kidney cells (HEK 293T). Kind of data set: Cytotoxicity to mammalian cells. Type of data set: cell-based. As to conditions: read-out: IC50 HEK 293T.
The next data set concerns T. b. brucei (Bs427). Kind of data set: In vitro trypanocidal assay. Type of data set: cell-based. The settings on record: for IC50: Trypanosoma brucei, read-out: IC50 Bs427; for activity against T. b. brucei (in words): in vitro.
A short description of data set [2]: LC-MS stability in phosphate buffer saline at 37°C. Type of data set: physicochemical.
Where [3] appears, read: phosphate buffered saline, pH 7.2.

In general, IC50 refers to the midpoint of a concentration-inhibition curve. On to `COc1ccc(CONC(=O)C2OC(C)(C)OC2COP(=O)(OCCSC(=O)C(C)(C)C)Oc2ccccc2)cc1` (stereo not drawn) [Compound 26a, 2,2-Dimethyl-thiopropionic acid S-(2-{[5-(4-methoxy-benzyloxycarbamoyl)-2,2-dimethyl-[1,3]dioxolan-4-ylmethoxy]-phenoxy-phosphoryloxy}-ethyl) ester], for which the IC50 is over 200 µM in data set [1] and over 100 µM in the data set on T. b. brucei (Bs427).

Broadly, the half-life is how long it takes for the measured level to halve. Regarding `CC1(C)OC(COP(=O)(OCOC(=O)C(C)(C)C)OCOC(=O)C(C)(C)C)C(C(=O)NO)O1` (stereo not drawn) [Compound 3e, (5-(hydroxycarbamoyl)-2,2-dimethyl-1,3-dioxolan-4-yl)methyl bis((pivaloyloxy)methyl) phosphate], the IC50 in data set [1] was over 200 µM; with T. b. brucei (Bs427), 20.2 µM. Also, the “activity against T. b. brucei (in words)” value with T. b. brucei (Bs427) is given as “moderate activities”. For the same molecule, the half-life at 1 mg/mL in data set [2] (setting [3]) is 31.8 min.

`COC(=O)C(C)NP(=O)(OCC1OC(C)(C)OC1C(=O)NO)Oc1ccc([N+](=O)[O-])cc1` (stereo not drawn) [Compound 3c, 2-[(5-Hydroxycarbamoyl-2,2-dimethyl-[1,3]dioxolan-4-ylmethoxy)-(4-nitro-phenoxy)-phosphorylamino]-propionic acid methyl ester]: the IC50 in data set [1] is over 200 µM. For the same molecule, in the data set on T. b. brucei (Bs427), the IC50 was found to be 43.8 µM and the “activity against T. b. brucei (in words)” value is listed as “moderate activities”. This molecule also had a half-life at 1 mg/mL in data set [2] (setting [3]) of 51 min.

On to “2,2-Dimethyl-thiopropionic acid S-(2-{[5-(2,4-dimethoxy-benzyloxycarbamoyl)-2,2-dimethyl-[1,3]dioxolan-4-ylmethoxy]-phenoxy-phosphoryloxy}-ethyl) ester [Compound 3d]”, for which the “activity against T. b. brucei (in words)” value with T. b. brucei (Bs427) is given as “highest activity”. The half-life in data set [2] (PBS (pH 7.2) at 37°C, LC-MS, disappearance of molecular ion) is 128 min.

`COc1ccc(CONC(=O)C2OC(C)(C)OC2COP(=O)(OCCSC(=O)C(C)(C)C)Oc2ccccc2)c(OC)c1` (stereo not drawn) [Compound 26b, 2,2-Dimethyl-thiopropionic acid S-(2-{[5-(2,4-dimethoxy-benzyloxycarbamoyl)-2,2-dimethyl-[1,3]dioxolan-4-ylmethoxy]-phenoxy-phosphoryloxy}-ethyl) ester]: the figures for the IC50 (in data set [1]; in the data set on T. b. brucei (Bs427)) were over 200 µM and over 100 µM, respectively.

In the case of `COc1ccc(CONC(=O)C2OC(C)(C)OC2COP(=O)(OCCSC(=O)C(C)(C)C)OCCSC(=O)C(C)(C)C)c(OC)c1` (stereo not drawn) [Compound 24, 2,2-dimethyl-thiopropionic acid S-(2-{[5-(2,4-dimethoxy-benzyloxycarbamoyl)-2,2-dimethyl-[1,3]dioxolan-4-ylmethoxy]-[2-(2,2-dimethyl-propionylsulfanyl)-ethoxy]-phosphoryloxy}-ethyl) ester], the IC50 in data set [1] is over 200 µM; in the data set with T. b. brucei (Bs427) it was 25 µM. The “activity against T. b. brucei (in words)” value with T. b. brucei (Bs427) is reported as “improved activity”.

Take `COC(=O)C(C)NP(=O)(OCC1OC(C)(C)OC1C(=O)NO)Oc1ccccc1` (stereo not drawn) [Compound 3b, 2-[(5-Hydroxycarbamoyl-2,2-dimethyl-[1,3]dioxolan-4-ylmethoxy)-phenoxy-phosphorylamino]-propionic acid methyl ester]: the IC50 in data set [1] was over 200 µM. For the same molecule, in the data set on T. b. brucei (Bs427), the IC50 amounted to 6.95 µM and the “activity against T. b. brucei (in words)” value is on record as “highest activity”. Besides, the half-life in data set [2] (setting [3]) is 300 min.

`CC1(C)OC(COP(=O)(OCCSC(=O)C(C)(C)C)OCCSC(=O)C(C)(C)C)C(C(=O)NO)O1` (stereo not drawn) [Compound 3a, 2,2-Dimethyl-thiopropionic acid S-{2-[[2-(2,2-dimethyl-propionylsulfanyl)-ethoxy]-(5-hydroxycarbamoyl-2,2-dimethyl-[1,3]dioxolan-4-ylmethoxy)-phosphoryloxy]-ethyl} ester]: the IC50 in data set [1] was over 200 µM. Moreover, in the data set on T. b. brucei (Bs427), the IC50 was found to be 4.23 µM and the “activity against T. b. brucei (in words)” value is reported as “highest activity”.
